{
  "source": "ChEMBL document CHEMBL5143739",
  "about": "“Design and Discovery of MRTX0902, a Potent, Selective, Brain-Penetrant, and Orally Bioavailable Inhibitor of the SOS1:KRAS Protein-Protein Interaction” (J Med Chem, 2022)",
  "key": {"[1]": {"test": "Inhibition of human recombinant SOS2 catalytic domain/human recombinant GST-KRAS G12C mutant expressed in Escherichia coli assessed as inhibition of interaction"}, "[2]": {"test": "Free plasma concentration in CD-1 mouse at 100 mg/kg, po measured on 1 hr", "type": "ADME, organism-based", "conditions": "in vivo"}, "[3]": {"test": "In vivo inhibition of ERK phosphorylation in human MIA PaCa-2 cells harbouring KRAS G12C mutant xenografted in athymic nude Foxn1 nu mouse assessed as phosphorylated ERK level at 10 mg/kg, po qd in presence of 50 mg/kg MRTX849 measured after 4 hrs relative to total ERK", "type": "functional"}, "[4]": {"test": "Inhibition of N-terminal his-tagged human recombinant SOS2/C-terminal Avi-biotinylated-tagged human recombinant KRAS expressed in Escherichia coli assessed as inhibition of GDP exchange rate by TR-FRET assay"}, "[5]": {"test": "In vivo inhibition of ERK phosphorylation in human MIA PaCa-2 cells harbouring KRAS G12C mutant xenografted in athymic nude Foxn1 nu mouse assessed as phosphorylated ERK level at 10 mg/kg, po qd in presence of 25 mg/kg MRTX849 measured after 4 hrs relative to total ERK", "type": "functional"}, "[6]": {"test": "In vivo inhibition of ERK phosphorylation in human MIA PaCa-2 cells harbouring KRAS G12C mutant xenografted in athymic nude Foxn1 nu mouse assessed as phosphorylated ERK level at 10 mg/kg, po qd measured after 4 hrs relative to total ERK", "type": "functional"}},
  "data": [
    {"smiles": "CNCc1ccccc1-c1csc([C@@H](C)Nc2nc(C)nc3cc(OC)c(OC)cc23)c1", "note": "[BAY-293]", "values": [
      {"measurement": "IC50", "setting": "[1]", "result": 21, "unit": "nM"}
    ]},
    {"smiles": "Cc1c(C#N)cccc1[C@@H](C)Nc1nnc(C)c2cnc(N3CCOCC3)cc12", "note": "[MRTX-0902]", "values": [
      {"measurement": "Cp(f)", "setting": "[2]", "result": 134, "unit": "nM"},
      {"measurement": "inhibition in vivo at 10 mg/kg", "setting": "[3]", "result": 81, "unit": "%"},
      {"measurement": "IC50", "setting": "[4]", "result": "> 10000", "unit": "nM"},
      {"measurement": "inhibition in vivo at 10 mg/kg", "setting": "[5]", "result": 66, "unit": "%"}
    ]},
    {"smiles": "C=C(F)C(=O)N1CCN(c2nc(OC[C@@H]3CCCN3C)nc3c2CCN(c2cccc4cccc(Cl)c24)C3)C[C@@H]1CC#N", "note": "[ADAGRASIB]", "values": [
      {"measurement": "inhibition in vivo at 10 mg/kg", "setting": "[6]", "result": 21, "unit": "%"}
    ]}
  ]
}
